Laboratory results from the supplement of paper PMC5908809.

Assays:
[1] = system: normal NK cells expanded with K562-aAPC; assay: percent inhibition of viability; higher = more inhibition; conditions: 72 h, IL-2 2.5 ng/mL
Method: (§1)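 Drug sensitivity and resistance testing on K562-aAPC-expanded normal NK cells: 5 concentrations (10-fold steps over a 10,000-fold range), 72 h at 37 °C, viability by CellTiter-Glo normalised to DMSO and benzethonium chloride controls; DSS from the fitted curve.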

[2] = system: normal NK cells expanded with K562-aAPC; assay: drug sensitivity score (DSS) (DSS units); higher = more sensitive; extreme values may be limits of the assay; conditions: 72 h; IL-2 2.5 ng/mL
Method: as §1

NK-YS (IL-2 2.5 ng/mL) [3] = assay: as above; conditions: 72 h
YT (IL-2 2.5 ng/mL) [4] = assay: as above; conditions: 72 h
DERL-7 (IL-2 2.5 ng/mL) [5] = assay: as above; conditions: 72 h
[6] = system: normal primary NK cells, pool 2 (3 donors) (IL-2 2.5 ng/mL); assay: as above; conditions: 72 h
[7] = system: normal primary NK cells, pool 1 (3 donors) (IL-2 2.5 ng/mL); assay: as above; conditions: 72 h
KAI3 (IL-2 2.5 ng/mL) [8] = assay: as above; conditions: 72 h
KHYG-1 (IL-2 2.5 ng/mL) [9] = assay: as above; conditions: 72 h
IMC-1 (IL-2 20 ng/mL) [10] = assay: as above; conditions: 72 h
[11] = system: normal primary NK cells, pool 1 (3 donors), resting (IL-2 0 ng/mL); assay: as above; conditions: 72 h
NKL (IL-2 2.5 ng/mL) [12] = assay: as above; conditions: 72 h
NK-92 (IL-2 2.5 ng/mL) [13] = assay: as above; conditions: 72 h
SNK-6 (IL-2 2.5 ng/mL) [14] = assay: as above; conditions: 72 h
[15] = system: normal primary NK cells, pool 3 (3 donors) (IL-2 2.5 ng/mL); assay: as above; conditions: 72 h
NK-YS (IL-2 2.5 ng/mL) [16] = assay: percent inhibition of viability; higher = more inhibition; conditions: 72 h
YT (IL-2 2.5 ng/mL) [17] = assay: as above; conditions: 72 h
DERL-7 (IL-2 2.5 ng/mL) [18] = assay: as above; conditions: 72 h
[19] = system: normal primary NK cells, pool 2 (3 donors) (IL-2 2.5 ng/mL); assay: as above; conditions: 72 h
[20] = system: normal primary NK cells, pool 1 (3 donors) (IL-2 2.5 ng/mL); assay: as above; conditions: 72 h
KAI3 (IL-2 2.5 ng/mL) [21] = assay: as above; conditions: 72 h
KHYG-1 (IL-2 2.5 ng/mL) [22] = assay: as above; conditions: 72 h
IMC-1 (IL-2 20 ng/mL) [23] = assay: as above; conditions: 72 h
[24] = system: normal primary NK cells, pool 1 (3 donors), resting (IL-2 0 ng/mL); assay: as above; conditions: 72 h
NKL (IL-2 2.5 ng/mL) [25] = assay: as above; conditions: 72 h
NK-92 (IL-2 2.5 ng/mL) [26] = assay: as above; conditions: 72 h
SNK-6 (IL-2 2.5 ng/mL) [27] = assay: as above; conditions: 72 h
[28] = system: normal primary NK cells, pool 3 (3 donors) (IL-2 2.5 ng/mL); assay: as above; conditions: 72 h

Nc1nc(Cl)nc2c1ncn2[C@@H]1O[C@H](CO)[C@@H](O)[C@@H]1F [Clofarabine] (max concentration tested 10000 nM)
percent inhibition of viability [%]
Conditions | 1 nM | 10 nM | 100 nM | 1000 nM | 10000 nM
DERL-7 (IL-2 2.5 ng/mL) [18] | -6.34 | 12.4 | 98.8 | 100 | 100
IMC-1 (IL-2 20 ng/mL) [23] | -5.2 | -10.7 | 83.5 | 99.8 | 100
KAI3 (IL-2 2.5 ng/mL) [21] | -5.93 | 2 | 84.8 | 100 | 103
KHYG-1 (IL-2 2.5 ng/mL) [22] | -5.63 | -3.93 | 98.4 | 101 | 102
NK-92 (IL-2 2.5 ng/mL) [26] | -17 | 2.38 | 98.2 | 101 | 104
NK-YS (IL-2 2.5 ng/mL) [16] | -2.94 | -3.43 | 73.3 | 96.5 | 100
NKL (IL-2 2.5 ng/mL) [25] | -14.3 | -3.55 | 97.4 | 102 | 105
SNK-6 (IL-2 2.5 ng/mL) [27] | -9.36 | -23.6 | 95 | 96.3 | 98.6
YT (IL-2 2.5 ng/mL) [17] | -2.64 | -4.64 | 17.5 | 78.8 | 85.4
[1] | -7.69 | 10 | 99.8 | 100 | 101
[19] | 1.6 | 18 | 90.5 | 95 | 96.2
[20] | 1.34 | 32.7 | 95.2 | 96.8 | 97.6
[24] | -1.53 | 61.1 | 92.3 | 90.6 | 93.4
[28] | -5.8 | 12.6 | 91 | 98.5 | 99.3

Conditions | drug sensitivity score
DERL-7 (IL-2 2.5 ng/mL) [5] | 32.5
IMC-1 (IL-2 20 ng/mL) [10] | 27.6
KAI3 (IL-2 2.5 ng/mL) [8] | 28
KHYG-1 (IL-2 2.5 ng/mL) [9] | 29.9
NK-92 (IL-2 2.5 ng/mL) [13] | 30.5
NK-YS (IL-2 2.5 ng/mL) [3] | 26.4
NKL (IL-2 2.5 ng/mL) [12] | 29.8
SNK-6 (IL-2 2.5 ng/mL) [14] | 28.5
YT (IL-2 2.5 ng/mL) [4] | 16.8
[2] | 32.1
[6] | 31
[7] | 33.7
[11] | 35.8
[15] | 30.7

CCn1c(C(=O)N(C2CC2)C2CC2)cc2c3c(ncn3C)c(Nc3cc(C)n(C)n3)nc21 (max concentration tested 10000 nM)
percent inhibition of viability [%]
Conditions | 1 nM | 10 nM | 100 nM | 1000 nM | 10000 nM
DERL-7 (IL-2 2.5 ng/mL) [18] | 0.43 | 0.75 | 1.97 | 12.3 | 54.1
IMC-1 (IL-2 20 ng/mL) [23] | -1.17 | 2.69 | 0.12 | -11.6 | -7.89
KAI3 (IL-2 2.5 ng/mL) [21] | 14.1 | 21.2 | 27.8 | 44.8 | 76.3
KHYG-1 (IL-2 2.5 ng/mL) [22] | 4.48 | 5.02 | 4.17 | 12.6 | 69.7
NK-92 (IL-2 2.5 ng/mL) [26] | 4.07 | 7.86 | -2 | 9.2 | 60.7
NK-YS (IL-2 2.5 ng/mL) [16] | 4.8 | 6.33 | 4.46 | 16.1 | 36.6
NKL (IL-2 2.5 ng/mL) [25] | 0.96 | -1.04 | 3.26 | 41.2 | 70.4
SNK-6 (IL-2 2.5 ng/mL) [27] | -4.81 | 22.8 | -3.45 | -16.6 | 7.74
YT (IL-2 2.5 ng/mL) [17] | 9.25 | 9.54 | 7.25 | 14.5 | 46.5
[1] | 5.29 | 4.9 | 4.54 | 16 | 63.8
[19] | -2.38 | -1.43 | 0.57 | 3.6 | 49
[20] | -3.85 | -1.69 | -6.9 | 11.7 | 41.6
[24] | -6.63 | -4.84 | -10.8 | 4.13 | 5.86
[28] | 5.51 | -1.86 | 3.33 | 6.54 | 30.7

Conditions | drug sensitivity score
DERL-7 (IL-2 2.5 ng/mL) [5] | 4.87
IMC-1 (IL-2 20 ng/mL) [10] | 0
KAI3 (IL-2 2.5 ng/mL) [8] | 14.5
KHYG-1 (IL-2 2.5 ng/mL) [9] | 5.93
NK-92 (IL-2 2.5 ng/mL) [13] | 4.85
NK-YS (IL-2 2.5 ng/mL) [3] | 3.29
NKL (IL-2 2.5 ng/mL) [12] | 8.84
SNK-6 (IL-2 2.5 ng/mL) [14] | 0
YT (IL-2 2.5 ng/mL) [4] | 4.02
[2] | 5.99
[6] | 3.12
[7] | 3.85
[11] | 0
[15] | 2.38

CN(Cc1cnc2nc(N)nc(N)c2n1)c1ccc(C(=O)N[C@@H](CCC(=O)O)C(=O)O)cc1 [Methotrexate] (max concentration tested 5000 nM)
percent inhibition of viability [%]
Conditions | 0.5 nM | 5 nM | 50 nM | 500 nM | 5000 nM
DERL-7 (IL-2 2.5 ng/mL) [18] | 1.41 | 1.81 | -8.11 | 43.7 | 51.8
IMC-1 (IL-2 20 ng/mL) [23] | -3.79 | 5.79 | 72.9 | 95.6 | 97.3
KAI3 (IL-2 2.5 ng/mL) [21] | 2.61 | 9.06 | 73.1 | 86.4 | 80.6
KHYG-1 (IL-2 2.5 ng/mL) [22] | 1.68 | 0.21 | 95.2 | 104 | 99.2
NK-92 (IL-2 2.5 ng/mL) [26] | -11.1 | 6.17 | 69.3 | 84 | 80.7
NK-YS (IL-2 2.5 ng/mL) [16] | 7.63 | 4.28 | 83.5 | 93 | 87.1
NKL (IL-2 2.5 ng/mL) [25] | -5.39 | -6.27 | 40.4 | 61.1 | 58.2
SNK-6 (IL-2 2.5 ng/mL) [27] | 2.63 | 21 | 76.8 | 81.2 | 82.7
YT (IL-2 2.5 ng/mL) [17] | 5.17 | 3.44 | 63.8 | 54.4 | 48.9
[1] | -3.65 | -3.48 | -3.07 | 34 | 31.4
[19] | -8.41 | -4.79 | -9.59 | -5.9 | -3.72
[20] | -2.85 | -7.99 | 1.44 | -1.93 | -0.84
[24] | -7.95 | -0.85 | 11.4 | 8.67 | 18.2
[28] | -11.3 | -6.43 | -11.2 | -2.82 | -3.84

Conditions | drug sensitivity score
DERL-7 (IL-2 2.5 ng/mL) [5] | 7.89
IMC-1 (IL-2 20 ng/mL) [10] | 26.7
KAI3 (IL-2 2.5 ng/mL) [8] | 25.6
KHYG-1 (IL-2 2.5 ng/mL) [9] | 29.8
NK-92 (IL-2 2.5 ng/mL) [13] | 24.3
NK-YS (IL-2 2.5 ng/mL) [3] | 27.5
NKL (IL-2 2.5 ng/mL) [12] | 16.1
SNK-6 (IL-2 2.5 ng/mL) [14] | 27.2
YT (IL-2 2.5 ng/mL) [4] | 20.5
[2] | 5.62
[6] | 0.89
[7] | 0
[11] | 1.25
[15] | 0.89
